Target: EGFR T790M/L858R Ba/F3 cell line (Homo sapiens, UniProt P00533, T790M/L858R, cells depend on it)
Experiment: Ba/F3 cell proliferation model
Assay type: cell-based, murine
Conditions: combined with cetuximab (% cetuximab, 1.0 μM drug concentration with 1.0 μg/mL cetuximab)
Summary of the method: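 Murine Ba/F3 cells made IL-3-independent by retroviral EGFR L858R/T790M, selected in puromycin (2 μg/ml) and kept in RPMI 1640 with 10% FBS. Cells were exposed to serially diluted compound for 72 h, with growth read by MTS assay in six wells per point and ≥3 repeats. Sigmoidal dose-response non-linear regression gave the values.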

Sequence of EGFR T790M/L858R Ba/F3 cell line (P00533 whole entry T790M/L858R): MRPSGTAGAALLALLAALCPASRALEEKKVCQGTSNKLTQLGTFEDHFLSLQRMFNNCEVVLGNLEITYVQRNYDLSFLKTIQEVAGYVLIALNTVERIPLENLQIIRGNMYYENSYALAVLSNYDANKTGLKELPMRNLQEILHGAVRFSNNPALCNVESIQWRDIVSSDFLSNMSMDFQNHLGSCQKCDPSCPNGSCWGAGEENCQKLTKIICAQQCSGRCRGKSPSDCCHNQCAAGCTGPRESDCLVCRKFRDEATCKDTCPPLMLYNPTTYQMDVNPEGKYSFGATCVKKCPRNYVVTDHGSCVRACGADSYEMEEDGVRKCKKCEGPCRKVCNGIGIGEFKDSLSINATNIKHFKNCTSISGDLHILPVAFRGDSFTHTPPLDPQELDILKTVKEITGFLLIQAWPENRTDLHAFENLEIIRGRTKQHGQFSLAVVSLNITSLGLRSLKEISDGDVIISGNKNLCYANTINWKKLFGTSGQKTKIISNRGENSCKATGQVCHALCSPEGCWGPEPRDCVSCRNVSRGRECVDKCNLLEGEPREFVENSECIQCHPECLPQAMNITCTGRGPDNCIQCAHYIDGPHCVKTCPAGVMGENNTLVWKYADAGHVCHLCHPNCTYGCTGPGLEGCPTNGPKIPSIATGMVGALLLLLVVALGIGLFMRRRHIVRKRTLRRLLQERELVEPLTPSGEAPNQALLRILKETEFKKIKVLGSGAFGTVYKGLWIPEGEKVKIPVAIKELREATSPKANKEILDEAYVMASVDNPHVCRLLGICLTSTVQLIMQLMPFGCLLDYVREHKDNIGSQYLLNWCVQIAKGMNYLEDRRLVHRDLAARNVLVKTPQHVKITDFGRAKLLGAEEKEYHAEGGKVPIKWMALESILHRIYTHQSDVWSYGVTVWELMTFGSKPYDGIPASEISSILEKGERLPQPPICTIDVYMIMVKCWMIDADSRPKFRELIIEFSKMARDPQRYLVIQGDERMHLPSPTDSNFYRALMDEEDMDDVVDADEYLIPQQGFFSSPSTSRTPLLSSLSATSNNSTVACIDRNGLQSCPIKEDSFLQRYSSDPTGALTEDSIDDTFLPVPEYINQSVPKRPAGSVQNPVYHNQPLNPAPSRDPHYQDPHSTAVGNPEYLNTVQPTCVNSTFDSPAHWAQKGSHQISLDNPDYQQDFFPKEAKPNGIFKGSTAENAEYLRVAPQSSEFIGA

Structure (SMILES) | Activity (% inhibition)
O=C(NCC(O)CO)c1cc(N[C@@H](C(=O)Nc2nccs2)c2ccccc2)ccc1[N+](=O)[O-] (stereo partly drawn) [Compound I-110, N-(2,3-dihydroxypropyl)-2-nitro-5-(((R)-2-oxo-1-phenyl-2-(thiazol-2-ylamino)ethyl)amino)benzamide] | A (a % inhibition of about 75%)
Cc1csc(NC(=O)[C@@H](c2ccccc2)N2Cc3ccc(-c4ccc5[nH]ccc5c4)cc3C2=O)n1 [Compound I-131, (R)-2-(6-(1H-indol-5-yl)-1-oxoisoindolin-2-yl)-N-(4-methylthiazol-2-yl)-2-phenylacetamide] | A (a % inhibition of about 75%)
CCn1cc(-c2ccc3c(c2)C(=O)N([C@@H](C(=O)Nc2nccs2)c2ccccc2)C3)cn1 [Compound I-63, (R)-2-(6-(1-ethyl-1H-pyrazol-4-yl)-1-oxoisoindolin-2-yl)-2-phenyl-N-(thiazol-2-yl)acetamide] | C (a % inhibition of between about 25% to about 50%)
CN(C)C1CCN(C(=O)c2csc(NC(=O)[C@@H](c3ccccc3)N3Cc4ccccc4C3=O)n2)CC1 [Compound I-23, (R)-N-(4-(4-(dimethylamino)piperidine-1-carbonyl)thiazol-2-yl)-2-(1-oxoisoindolin-2-yl)-2-phenylacetamide] | A (a % inhibition of about 75%)
O=C(Nc1cnoc1)[C@@H](c1ccccc1)N1Cc2ccc(-c3ccc4[nH]ccc4c3)cc2C1=O [Compound I-130, (R)-2-(6-(1H-indol-5-yl)-1-oxoisoindolin-2-yl)-N-(isoxazol-4-yl)-2-phenylacetamide] | C (a % inhibition of between about 25% to about 50%)
O=C(Nc1ccccc1Cl)[C@@H](c1ccccc1)N1Cc2ccccc2C1=O [Compound I-52, (R)-N-(2-chlorophenyl)-2-(1-oxoisoindolin-2-yl)-2-phenylacetamide] | A (a % inhibition of about 75%)
O=C(Nc1ccccc1)[C@@H](c1ccccc1)N1Cc2ccccc2C1=O [Compound I-51, (R)-2-(1-oxoisoindolin-2-yl)-N,2-diphenylacetamide] | A (a % inhibition of about 75%)
O=C(Nc1cc(Br)ccn1)[C@@H](c1ccccc1)N1Cc2ccccc2C1=O [Compound I-28, (R)-N-(4-bromopyridin-2-yl)-2-(1-oxoisoindolin-2-yl)-2-phenylacetamide] | A (a % inhibition of about 75%)
O=C(Nc1nc(C(F)(F)F)cs1)[C@@H](c1ccccc1)N1Cc2ccc(-c3ccc4[nH]ccc4c3)cc2C1=O [Compound I-132, (R)-2-(6-(1H-indol-5-yl)-1-oxoisoindolin-2-yl)-2-phenyl-N-(4-(trifluoromethyl)thiazol-2-yl)acetamide] | A (a % inhibition of about 75%)
CN(C)CCCCNC(=O)c1ccc(-c2ccc3c(c2)C(=O)N([C@@H](C(=O)Nc2nccs2)c2ccccc2)C3)cc1 [Compound I-82, (R)-N-(4-(dimethylamino)butyl)-4-(3-oxo-2-(2-oxo-1-phenyl-2-(thiazol-2-ylamino)ethyl)isoindolin-5-yl)benzamide] | C (a % inhibition of between about 25% to about 50%)
O=C(Nc1nccs1)[C@@H](c1ccccc1)N1Cc2ccc(-c3cncnc3)cc2C1=O [Compound I-62, (R)-2-(1-oxo-6-(pyrimidin-5-yl)isoindolin-2-yl)-2-phenyl-N-(thiazol-2-yl)acetamide] | B (a % inhibition of between about 50% to about 75%)
O=C(Nc1nccs1)[C@@H](c1ccccc1)N1Cc2ccc(-c3ccc(F)cc3)cc2C1=O [Compound I-77, (R)-2-(6-(4-fluorophenyl)-1-oxoisoindolin-2-yl)-2-phenyl-N-(thiazol-2-yl)acetamide] | B (a % inhibition of between about 50% to about 75%)
O=C(Nc1cnsc1)[C@@H](c1ccccc1)N1Cc2ccc(-c3ccc4[nH]ccc4c3)cc2C1=O [Compound I-128, (R)-2-(6-(1H-indol-5-yl)-1-oxoisoindolin-2-yl)-N-(isothiazol-4-yl)-2-phenylacetamide] | A (a % inhibition of about 75%)
CN(C)CCNC(=O)c1csc(NC(=O)[C@@H](c2ccccc2)N2Cc3ccccc3C2=O)n1 [Compound I-16, (R)-N-(2-(dimethylamino)ethyl)-2-(2-(1-oxoisoindolin-2-yl)-2-phenylacetamido)thiazole-4-carboxamide] | A (a % inhibition of about 75%)
O=C(Nc1ccccc1F)[C@@H](c1ccccc1)N1Cc2ccccc2C1=O [Compound I-55, (R)-N-(2-fluorophenyl)-2-(1-oxoisoindolin-2-yl)-2-phenylacetamide] | B (a % inhibition of between about 50% to about 75%)
NC(=O)c1csc(NC(=O)[C@@H](c2ccccc2)N2Cc3ccccc3C2=O)n1 [Compound I-17, (R)-2-(2-(1-oxoisoindolin-2-yl)-2-phenylacetamido)thiazole-4-carboxamide] | A (a % inhibition of about 75%)
CNC(=O)c1csc(NC(=O)[C@@H](c2ccccc2)N2Cc3ccccc3C2=O)n1 [Compound I-9, (R)-N-methyl-2-(2-(1-oxoisoindolin-2-yl)-2-phenylacetamido) thiazole-4-carboxamide] | A (a % inhibition of about 75%)
O=C(Nc1ncccc1Cl)[C@@H](c1ccccc1)N1Cc2ccccc2C1=O [Compound I-57, (R)-N-(3-chloropyridin-2-yl)-2-(1-oxoisoindolin-2-yl)-2-phenylacetamide] | A (a % inhibition of about 75%)
C[C@@H](NC(=O)[C@H](c1ccccc1)N1Cc2ccccc2C1=O)c1ccccc1 [Compound I-1, (S)-2-(1-oxoisoindolin-2-yl)-2-phenyl-N-((R)-1-phenylethyl)acetamide] | A (a % inhibition of about 75%)
O=C(Nc1ncc(Br)s1)[C@@H](c1ccccc1)N1Cc2ccccc2C1=O [Compound I-40, (R)-N-(5-bromothiazol-2-yl)-2-(1-oxoisoindolin-2-yl)-2-phenylacetamide] | A (a % inhibition of about 75%)
O=C(Nc1nccs1)[C@@H](c1ccccc1)N1Cc2ccc(Nc3cccc(CN4CCCC4)c3)cc2C1=O [Compound I-100, (R)-2-(1-oxo-6-((3-(pyrrolidin-1-ylmethyl)phenyl)amino)isoindolin-2-yl)-2-phenyl-N-(thiazol-2-yl)acetamide] | D (a % inhibition of between about 0% to about 25%)
O=C(Nc1nccs1)[C@@H](c1ccccc1)N1Cc2cc(-c3ccccc3)ccc2C1=O [Compound I-105, (R)-2-(1-oxo-5-phenylisoindolin-2-yl)-2-phenyl-N-(thiazol-2-yl)acetamide] | B (a % inhibition of between about 50% to about 75%)

— patent US10385019B2, “Inhibitors of EGFR and methods of use thereof” (Dana-Farber Cancer Institute, Inc., priority 2015, dated 2019)
